# Test results published in patent US7790884B2, “Acylaminopiperidine compound” (Astellas Pharma Inc., priority 2006, dated 2010).
# Counter-ions that a name gives are not always drawn.
# Biological target: T1, human CCR4 (Homo sapiens, UniProt P51679)
# T1 construct: expressed in transfected cells; membrane fraction used
# T1 sequence (P51679 1-360): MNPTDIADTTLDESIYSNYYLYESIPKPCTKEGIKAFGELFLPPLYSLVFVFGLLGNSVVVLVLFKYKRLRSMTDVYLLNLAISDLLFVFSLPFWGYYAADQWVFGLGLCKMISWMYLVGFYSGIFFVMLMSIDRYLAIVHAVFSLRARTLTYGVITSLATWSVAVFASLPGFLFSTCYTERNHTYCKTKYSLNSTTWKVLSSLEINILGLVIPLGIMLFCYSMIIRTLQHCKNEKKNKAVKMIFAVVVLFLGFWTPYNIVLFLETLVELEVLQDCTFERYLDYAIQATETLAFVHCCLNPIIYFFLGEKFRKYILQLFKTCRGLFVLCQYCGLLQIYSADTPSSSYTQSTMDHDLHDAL
# Assay: [35S]GTPγS binding test via CCR4 (human MDC-stimulated, human CCR4 expressing cell line membrane fraction)
# Assay type: biochemical
# Details: membrane fraction of human CCR4 expressing B300-16 cells, room temperature 1 hour 30 minutes, read-out: inhibitory activity value (IC50)
# Protocol: Action for [^35S]GTPγS Binding Test Via CCR4 (1) Preparation of Human CCR4 Expressing Cell Line A vector (contains a neomycin-resistance gene) in which human CCR4 gene was inserted into downstream of the EF-1α promoter was prepared and transfected into a mouse pre B cell line B300-16 cells by electroporation. These cells were cultured using a G-418-supplemented medium, and a single cell line capable of producing human CCR4 constantly and stably was obtained by the limiting dilution method. (2) Preparation of Human CCR4 Expressing Cell Line Membrane Fraction The human CCR4 expressing cells were recovered, washed with PBS and then suspended in a lysis buffer (10 mM HEPES pH 7.5, 2 mM EDTA, proteinase inhibitor). After allowing the suspension to stand on ice for 15 minutes, the cells were disintegrated using a homogenizer and centrifuged (2000 rpm, 10 min, 4° C.). The supernatant was further subjected to ultracentrifugation (22 K, 30 min, 4° C.), and then the pellet was suspended in PBS and used in the subsequent test. (3) GTPγS Binding Test In a reaction mixture liquid containing 20 mM of HEPES pH 7.05, 100 mM of NaCl, 5 mM of MgCl2, 2 μM of GDP, human MDC, […] of [^35S]GTPγS, 1 mg of wheat germ agglutinin SPA beads and 1 μg of the human CCR4 expressing cell line membrane fraction, respective concentration of the test compound was allowed to undergo the reaction at room temperature for 1 hour and 30 minutes, and the radioactivity was measured.
row,Structure (SMILES),IC50 [nM]
1,CN(C(=O)[C@@H]1CCCN1C)C1CCN(c2nc(Nc3ccc(Cl)cc3F)c3cc(F)ccc3n2)CC1 [Example 31],≤ 100
2,CCN(C(=O)[C@@H]1CCCN1C)C1CCN(c2nc(Nc3ccc(Cl)cc3)c3cc(Br)ccc3n2)CC1 [Example 59],≤ 100
3,CCN(C(=O)[C@@H]1CCCN1)C1CCN(c2nc(Nc3ccc(Cl)cc3F)c3cc(F)c(OC)cc3n2)CC1 [Example 63],≤ 100
4,"COc1cc2nc(N3CCC(N(C)C(=O)[C@@H]4CCCN4)CC3)nc(Nc3ccc(Cl)cc3F)c2cc1OC [Example 2, N-(1-{4-[(4-chloro-2-fluorophenyl)amino]-6,7-dimethoxyquinazolin-2-yl}piperidin-4-yl)-N-methyl-L-prolinamide dihydrochloride]",≤ 100
5,CCN(C(=O)[C@H]1CCCN1)C1CCN(c2nc(Nc3ccc(Cl)cc3F)c3cc(F)c(OC)cc3n2)CC1 [Example 65],≤ 100
6,COc1cc2nc(N3CCC(N(C(=O)[C@@H]4CCCN4)C4CC4)CC3)nc(Nc3ccc(Cl)cc3F)c2cc1OC [Example 13],≤ 100
7,COc1cc2nc(N3CCC(N(C(=O)[C@H]4CCCCN4)C4CCC4)CC3)nc(Nc3ccc(Cl)cc3F)c2cc1OC [Example 91],≤ 100
8,CN(C(=O)[C@H]1CCCN1C)C1CCN(c2nc(Nc3ccc(Cl)cc3F)c3ccc(C#N)cc3n2)CC1 [Example 70],≤ 100
9,CCN(C(=O)[C@@H]1CCCN1C)C1CCN(c2nc(Nc3ccc(Cl)cc3)c3cc(F)ccc3n2)CC1 [Example 51],≤ 100
10,CN(C(=O)[C@H]1CCCN1C)C1CCN(c2nc(Nc3ccc(Cl)cc3F)c3cc(F)ccc3n2)CC1 [Example 32],≤ 100
11,COc1cc2nc(N3CCC(N(C)C(=O)[C@@H]4CCCCN4)CC3)nc(Nc3ccc(Cl)cc3F)c2cc1OC [Example 86],≤ 100
12,CCN(C(=O)[C@H]1CCCN1)C1CCN(c2nc(Nc3ccc(Cl)cc3)c3cc(F)ccc3n2)CC1 [Example 40],≤ 100
13,CN(C(=O)[C@H]1CCCN1)C1CCN(c2nc(Nc3ccc(Cl)cc3)c3cc(Br)ccc3n2)CC1 [Example 44],≤ 100
14,CCN(C(=O)[C@H]1CCCN1C)C1CCN(c2nc(Nc3ccc(Cl)cc3F)c3cc(Br)ccc3n2)CC1 [Example 58],≤ 100
15,CCN(C(=O)[C@@H]1CCCN1)C1CCN(c2nc(Nc3ccc(Cl)cc3)c3cc(Br)ccc3n2)CC1 [Example 64],≤ 100
16,COc1cc2nc(N3CCC(N(C)C(=O)[C@H]4CCCN4C)CC3)nc(Nc3ccc(Cl)cc3F)c2cc1F [Example 66],≤ 100
17,COc1cc2nc(N3CCC(N(C)C(=O)[C@H]4CCCN4)CC3)nc(Nc3cc(F)c(F)cc3F)c2cc1F [Example 72],≤ 100
18,CCN(C(=O)[C@H]1CCCN1C)C1CCN(c2nc(Nc3ccc(Cl)cc3F)c3cc(OC)c(OC)cc3n2)CC1 [Example 26],≤ 100
19,COc1cc2c(Nc3ccc(Cl)cc3F)nc(N3CCC(N(C)C(=O)[C@H]4CCCN4C)CC3)nc2cc1F [Example 37],≤ 100
20,COc1cc2nc(N3CCC(N(C)C(=O)[C@H]4CCCN4)CC3)nc(Nc3c(F)cc(Cl)cc3F)c2cc1F [Example 78],≤ 100

row,Structure (SMILES),IC50 [nM]
1,CN(C(=O)[C@H]1CCCN1C)C1CCN(c2nc(Nc3ccc(Cl)cc3F)c3cc(Br)ccc3n2)CC1 [Example 22],≤ 100
2,CN(C(=O)[C@@H]1CCCN1C)C1CCN(c2nc(Nc3ccc(Cl)cc3)c3cc(F)ccc3n2)CC1 [Example 41],≤ 100
3,CCN(C(=O)[C@@H]1CCCN1)C1CCN(c2nc(Nc3ccc(Cl)cc3)c3cc(F)ccc3n2)CC1 [Example 53],≤ 100
4,COc1cc2nc(N3CCC(N(C(=O)[C@H]4CCCN4C)C4CC4)CC3)nc(Nc3ccc(Cl)cc3F)c2cc1OC [Example 21],≤ 100
5,CCN(C(=O)[C@H]1CCCN1)C1CCN(c2nc(Nc3ccc(Cl)cc3F)c3cc(OC)c(OC)cc3n2)CC1 [Example 12],≤ 100
6,CCN(C(=O)[C@H]1CCCN1)C1CCN(c2nc(Nc3ccc(Cl)cc3)c3cc(Br)ccc3n2)CC1 [Example 45],≤ 100
7,CN(C(=O)[C@@H]1CCCN1C)C1CCN(c2nc(Nc3ccc(Cl)cc3)c3cc(Br)ccc3n2)CC1 [Example 46],≤ 100
8,CCN(C(=O)[C@@H]1CCCN1)C1CCN(c2nc(Nc3ccc(Cl)cc3F)c3cc(OC)c(OC)cc3n2)CC1 [Example 9],≤ 100
9,COc1cc2nc(N3CCC(N(C)C(=O)[C@H]4CCCN4)CC3)nc(Nc3ccc(Cl)cc3)c2cc1F [Example 73],≤ 100
10,COc1cc2nc(N3CCC(N(C)C(=O)[C@H]4CCCN4)CC3)nc(Nc3ncc(Cl)cc3Cl)c2cc1F [Example 75],≤ 100
11,COc1cc2nc(N3CCC(N(C)C(=O)[C@H]4CCCCN4)CC3)nc(Nc3ccc(Cl)cc3F)c2cc1OC [Example 87],≤ 100
12,CCN(C(=O)[C@H]1CCCN1)C1CCN(c2nc(Nc3ccc(Cl)cc3F)c3ccc(C#N)cc3n2)CC1 [Example 28],≤ 100
13,CCN(C(=O)[C@@H]1CCCN1C)C1CCN(c2nc(Nc3ccc(Cl)cc3F)c3cc(Br)ccc3n2)CC1 [Example 57],≤ 100
14,COc1cc2c(Nc3ccc(Cl)cc3F)nc(N3CCC(N(C)C(=O)[C@@H]4CCCN4C)CC3)nc2cc1F [Example 36],≤ 100
15,CN(C(=O)[C@@H]1CCCN1)C1CCN(c2nc(Nc3ccc(Cl)cc3)c3cc(Br)ccc3n2)CC1 [Example 43],≤ 100
16,COc1cc2nc(N3CCC(N(C)C(=O)[C@@H]4CCCN4C)CC3)nc(Nc3ccc(Cl)cc3F)c2cc1F [Example 6],≤ 100
17,CCN(C(=O)[C@@H]1CCCN1)C1CCN(c2nc(Nc3ccc(Cl)cc3F)c3cc(Br)ccc3n2)CC1 [Example 55],≤ 100
18,CCN(C(=O)[C@H]1CCCN1C)C1CCN(c2nc(Nc3ccc(Cl)cc3)c3cc(Br)ccc3n2)CC1 [Example 60],≤ 100
19,COc1cc2nc(N3CCC(N(C)C(=O)[C@H]4CCCN4CC(O)CO)CC3)nc(Nc3ccc(Cl)cc3F)c2cc1F (stereo partly shown) [Example 80],≤ 100

# Second part, the compound after the results:
row,IC50 [nM],Structure (SMILES)
1,≤ 100,CN(C(=O)[C@@H]1CCCN1)C1CCN(c2nc(Nc3ccc(Cl)cc3F)c3ccc(C#N)cc3n2)CC1 [Example 5]
2,≤ 100,COc1cc2nc(N3CCC(N(C)C(=O)[C@H]4CCCN4)CC3)nc(Nc3ccc(Cl)cc3F)c2cc1F [Example 62]
3,≤ 100,CCn1ncc2c(Nc3ccc(Cl)cc3F)nc(N3CCC(N(C)C(=O)[C@H]4CCCN4)CC3)nc21 [Example 99]
4,≤ 100,CCn1ncc2c(NCc3ccc(Cl)cc3F)nc(N3CCC(N(C)C(=O)[C@H]4CCCN4)CC3)nc21 [Example 105]
5,≤ 100,CCN(C(=O)[C@H]1CCCN1)C1CCN(c2nc(Nc3ccc(Cl)cc3F)c3cc(F)ccc3n2)CC1 [Example 33]
6,≤ 100,CN(C(=O)[C@H]1CCCN1)C1CCN(c2nc(Nc3ccc(Cl)cc3F)c3cnn(CC(F)(F)F)c3n2)CC1 [Example 102]
7,≤ 100,CN(C(=O)[C@H]1CCCN1)C1CCN(c2nc(Nc3ccc(Cl)cc3F)c3cc(Br)ccc3n2)CC1 [Example 27]
8,≤ 100,CCN(C(=O)[C@@H]1CCCN1)C1CCN(c2nc(Nc3ccc(Cl)cc3F)c3cc(F)ccc3n2)CC1 [Example 48]
9,≤ 100,CN(C(=O)[C@H]1CCCN1C)C1CCN(c2nc(Nc3ccc(Cl)cc3F)c3cnn(CC(F)(F)F)c3n2)CC1 [Example 104]
10,≤ 100,COc1cc2nc(N3CCC(N(C)C(=O)[C@H]4CCCN4)CC3)nc(Nc3ccc(Cl)cn3)c2cc1F [Example 74]
11,≤ 100,CCn1ncc2c(Nc3ccc(Cl)cc3F)nc(N3CCC(N(C)C(=O)[C@H]4CCCN4C)CC3)nc21 [Example 100]
12,≤ 100,CN(C(=O)[C@@H]1CCCN1)C1CCN(c2nc(Nc3ccc(Cl)cc3)c3cc(F)ccc3n2)CC1 [Example 38]
13,≤ 100,CN(C(=O)[C@H]1CCCN1)C1CCN(c2nc(Nc3ccc(Cl)cc3)c3cc(F)ccc3n2)CC1 [Example 39]
14,≤ 100,CN(C(=O)[C@H]1CCCN1)C1CCN(c2nc(Nc3ccc(Cl)cc3F)c3ccc(C#N)cc3n2)CC1 [Example 68]
15,≤ 100,CN(C(=O)[C@H]1CCCN1)C1CCN(c2nc(Nc3ccc(Cl)cc3F)c3cc(F)ccc3n2)CC1 [Example 30]
16,≤ 100,CN(C(=O)[C@@H]1CCCN1)C1CCN(c2nc(Nc3ccc(Cl)cc3F)c3cc(F)ccc3n2)CC1 [Example 29]
17,≤ 100,CN(C(=O)[C@@H]1CCCN1C)C1CCN(c2nc(Nc3ccc(Cl)cc3F)c3cnn(CC(F)(F)F)c3n2)CC1 [Example 103]
18,≤ 100,CN(C(=O)[C@@H]1CCCN1)C1CCN(c2nc(Nc3ccc(Cl)cc3F)c3cc(Br)ccc3n2)CC1 [Example 54]
19,≤ 100,COc1cc2nc(N3CCC(N(C)C(=O)[C@H]4CCCN4)CC3)nc(NCc3ccc(Cl)cc3F)c2cc1F [Example 79]
